# Assay results published in patent US11045419B2, “Pharmaceutical preparation of carbohydrates for therapeutic use” (Glycomine, Inc., priority 2013, dated 2021).
# Test system: CDG-Ia fibroblasts
# Assay: LLO oligosaccharide distribution in fibroblasts by normal phase chromatography
# Format: cell-based, human
# Conditions: low glucose DMEM, 300 μM treatment, peak area normalized to protein content
# Procedure: Cellular internalization into the cytosol and subsequent integration of the M1P-liposomes (as prepared in Example 1), was assessed in vitro using primary human dermal fibroblasts derived from patients affected with CDG-Ia disorder (CDG-Ia fibroblasts) and wild-type human dermal fibroblasts. For evaluation of the ability of the M1P-liposomes to correct protein glycosylation defects, M1P-liposomes were delivered to CDG Type I primary fibroblasts derived from patients affected with CDG-Ia disorder. The ability to drive glycosylation forward was evaluated by comparing glycoprotein N-glycan structure before and after treatment. Such comparison required N-glycan analysis using normal phase chromatography. By utilizing endocytotic pathways, M1P-liposomes can enter the cell interior and release their cargo into the cytosol. Due to the ability to deliver a non-modified mannose-1-phosphate into the cytosol, analysis was performed on the assembly of LLO oligosaccharides in wild-type fibroblasts and fibroblasts derived from a CDG-Ia patient ([…] structures were isolated from the wild-type fibroblasts (having 100% PMM activity) as well as from the CDG-Ia fibroblasts (having 10% PMM activity) and the amounts of the LLO structures were compared using chromatographic methods. CDG-Ia dermal fibroblasts make a series of truncated lipid-linked oligosaccharide (LLO) species ranging in size from M2Gn2 to M5Gn2 with M2Gn2 and M3Gn2 being predominant. The M1P liposomes from Example 1 were tested in order to evaluate their capacity to normalize the distribution of various LLO oligosaccharides. CDG-Ia fibroblasts cultured in low glucose DMEM media were incubated with 300 μM of bare M1P (M1P) and 300 μM of the M1P-liposomes (M1PL). After treatment, cells were harvested and LLO oligosaccharides were recovered, hydrolyzed, modified with fluorophore, and analyzed by normal phase chromatography as described by Gao et al. (Methods in Enzymology, 2006, 415, 3-20) and Bones et al. (Anal. Chem, 2011, 83 (13), 5344-52). The peak area of each LLO was normalized to protein content prior to calculation of percentage abundance.
compound,measurement,value
"O=P(O)(O)OC1O[C@H](CO)[C@@H](O)[C@H](O)[C@@H]1O (stereo partly shown) [M1P, mannose-1-phosphate]",M2Gn2 LLO oligosaccharide distribution (percentage abundance),40%
same,M3Gn2 LLO oligosaccharide distribution (percentage abundance),24%
same,M4Gn2 LLO oligosaccharide distribution (percentage abundance),27%
same,M5Gn2 LLO oligosaccharide distribution (percentage abundance),8.9%
